A short description of data set [1]: 48 hours cytotoxicity assay (CellTiter-Glo), liver toxicity. The class given is cell-based, human. The note with it: 48 hours of incubation, CellTiter-Glo; read-out: Inhibitory Concentration at 50% Cytotoxicity (IC50) Human Liver Cells (HepG2). Summed up: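 HepG2 cells in EMEM with 10% FBS, allowed to attach 4 h, then exposed to serially diluted StAMPs or vehicle for 48 h at 37 °C. Viability read by CellTiter-Glo luminescence.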
For orientation: Cellular ATP, detected with luciferase, serves as a proxy for viable cell number.

A short description of data set [2]: 90 minute cytotoxicity assay (LDH release), renal toxicity. The class given is cell-based. As to conditions: 90 minutes of incubation, LDH release; read-out: Inhibitory Concentration at 50% Cytotoxicity (IC50) Human Renal Proximal Tubule Epithelial Cells (RPTEC). The method in brief: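 RPTEC plated overnight, given fresh medium, then exposed to serial peptide dilutions or vehicle for 90 min at 37° C. Medium LDH measured by 10 min reagent incubation and absorbance at 490 nm.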
(In general: LDH in the medium is a marker of cell lysis.)

In data set [3] the test system is Acinetobacter baumannii (A. baumannii). Type of data set: cell-based. As to conditions: microbroth dilution, 20-24 hours at 37° C. Summed up:
(§1)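 MIC by broth microdilution adapted from CLSI, in Mueller-Hinton broth or cation-adjusted MHB II, at a final inoculum of 5×10^5 CFU/ml. Overnight cultures were diluted and regrown 3-4 h before use. Serially diluted peptide was incubated 20-24 h at 37° C, and MIC was the lowest concentration showing no visible growth.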
Background: In broth dilution the organism is exposed to a series of concentrations in liquid medium.

Data set [4] deals with Klebsiella pneumoniae (K. pneumoniae). The class given is cell-based. As to conditions: microbroth dilution, 20-24 hours at 37° C. The method in brief:
as §1

In data set [5] the test system is Pseudomonas aeruginosa (P. aeruginosa). The class given is cell-based. As to conditions: microbroth dilution, 20-24 hours at 37° C. Summed up: as §1
The test system of data set [6] is Staphylococcus aureus (S. aureus). Type of data set: cell-based. As to conditions: microbroth dilution, 20-24 hours at 37° C. Summed up: as §1
Data set [7] concerns Escherichia coli (E. coli). The class given is cell-based. The note with it: microbroth dilution, 20-24 hours at 37° C. The method in brief:
as §1

Values after ≈ are worked out from the molar mass of the structure shown. Starred links: 1 amine or outer side, 2 acyl side, 3 side chain; linkers in the order of their positions; H or OH if unused. Positions of bridges follow the written chain, without caps; N, C: chain ends. Residues, ends and D or L forms follow the SMILES beside them. 2,2'Bipyridine(5,5'-diCH2) = c1cc(-c2ccc(C[*:2])cn2)ncc1C[*:1]; Naphthalene(2,6-diCH2) = c1cc2cc(C[*:2])ccc2cc1C[*:1]; mXylylene = c1cc(C[*:1])cc(C[*:2])c1

On to `CC[C@H](C)[C@H](NC(=O)CN)C(=O)N[C@@H](Cc1ccccc1)C(=O)N[C@@H](CO)C(=O)N[C@@H](CCCCN)C(=O)N[C@@H](CC(C)C)C(=O)N[C@@H](C)C(=O)NCC(=O)N[C@@H](CCCCN)C(=O)N[C@H]1CSCc2cccc(c2)CSC[C@@H](C(=O)N[C@@H](CC(C)C)C(=O)N[C@H](C(=O)N[C@@H](CO)C(=O)NCC(=O)N[C@@H](CC(C)C)C(=O)N[C@@H](CCCCN)C(=O)NCC(N)=O)[C@@H](C)CC)NC(=O)[C@H](CC(N)=O)NC(=O)[C@H](CCCCN)NC(=O)[C@H]([C@@H](C)CC)NC1=O` [compound 14] (H-GIFSKLAGKCIKNCLISGLKG-NH2; linker 10-14 via mXylylene), for which the values for the IC50 in data set [1] and in data set [2] were 49 µg/mL (≈ 21.8 µM) and 41 µg/mL (≈ 18.2 µM), respectively. For the same compound, in data set [3], the “Minimum Inhibitory Concentration (MIC) A. baumannii” value came out at 8 µg/mL. For the same compound, the “Minimum Inhibitory Concentration (MIC) K. pneumoniae” value in data set [4] came out at 16 µg/mL. Moreover, in data set [5], the “Minimum Inhibitory Concentration (MIC) P. aeruginosa” value was determined as 16 µg/mL. The “Minimum Inhibitory Concentration (MIC) S. aureus” value in data set [6] stood at 32 µg/mL. Further, the “Minimum Inhibitory Concentration (MIC) E. coli” value in data set [7] was determined as 4 µg/mL.

With `CC[C@H](C)[C@H](NC(=O)CN)C(=O)N[C@@H](Cc1ccccc1)C(=O)N[C@@H](CO)C(=O)N[C@@H](CCCCN)C(=O)N[C@@H](CC(C)C)C(=O)N[C@@H](C)C(=O)NCC(=O)N[C@@H](CCCCN)C(=O)N[C@H]1CSCc2ccc(nc2)-c2ccc(cn2)CSC[C@@H](C(=O)NCC(=O)N[C@@H](CC(C)C)C(=O)N[C@@H](CCCCN)C(=O)NCC(N)=O)NC(=O)[C@H]([C@@H](C)CC)NC(=O)[C@H](CC(C)C)NC(=O)[C@H](CC(C)C)NC(=O)[C@H](CC(N)=O)NC(=O)[C@H](CCCCN)NC(=O)[C@H]([C@@H](C)CC)NC1=O` [compound 72] (H-GIFSKLAGKCIKNLLICGLKG-NH2; linker 10-17 via 2,2'Bipyridine(5,5'-diCH2); N-terminus assumed), the IC50 in data set [2] was found to be 19 µg/mL (≈ 8.06 µM). Besides, the “Minimum Inhibitory Concentration (MIC) A. baumannii” value in data set [3] amounted to 4 µg/mL. For the same compound, in data set [4], the “Minimum Inhibitory Concentration (MIC) K. pneumoniae” value was determined as 8 µg/mL. The “Minimum Inhibitory Concentration (MIC) P. aeruginosa” value in data set [5] stood at 32 µg/mL. Besides, the “Minimum Inhibitory Concentration (MIC) S. aureus” value in data set [6] turned out to be 4 µg/mL. Further, in data set [7], the “Minimum Inhibitory Concentration (MIC) E. coli” value stood at 4 µg/mL.

For `CC[C@H](C)[C@H](NC(=O)CN)C(=O)N[C@@H](Cc1ccccc1)C(=O)N[C@@H](CO)C(=O)N[C@@H](CCCCN)C(=O)N[C@@H](CC(C)C)C(=O)N[C@@H](C)C(=O)NCC(=O)N[C@@H](CCCCN)C(=O)N[C@H]1CSCc2ccc3cc(ccc3c2)CSC[C@@H](C(=O)NCC(=O)N[C@@H](CC(C)C)C(=O)N[C@@H](CCCCN)C(=O)NCC(N)=O)NC(=O)[C@H]([C@@H](C)CC)NC(=O)[C@H](CC(C)C)NC(=O)[C@H](CC(C)C)NC(=O)[C@H](CC(N)=O)NC(=O)[C@H](CCCCN)NC(=O)[C@H]([C@@H](C)CC)NC1=O` [compound 73] (H-GIFSKLAGKCIKNLLICGLKG-NH2; linker 10-17 via Naphthalene(2,6-diCH2); N-terminus assumed), in data set [2], the IC50 came out at 9 µg/mL (≈ 3.87 µM). Besides, in data set [3], the “Minimum Inhibitory Concentration (MIC) A. baumannii” value came to 4 µg/mL. In addition, the “Minimum Inhibitory Concentration (MIC) K. pneumoniae” value in data set [4] was 8 µg/mL. Moreover, in data set [5], the “Minimum Inhibitory Concentration (MIC) P. aeruginosa” value turned out to be 64 µg/mL. The “Minimum Inhibitory Concentration (MIC) S. aureus” value in data set [6] worked out at 4 µg/mL. Also, the “Minimum Inhibitory Concentration (MIC) E. coli” value in data set [7] stood at 8 µg/mL.

These data come from US20240391965A1, “STAPLED ANTIMICROBIAL PEPTIDES (STAMPS) AND USES THEREOF” (Lytica Therapeutics, Inc., priority 2021, published 2024).
